Holding throughout (experiment): IP1 accumulation
Type in all cases: cell-based

The target in one experiment is T1, hCTR G369A (Homo sapiens, UniProt P30988, G369A).
T1 construct: c-Myc (N); expressed in transfected cells
T1 sequence (P30988 25-474 G369A): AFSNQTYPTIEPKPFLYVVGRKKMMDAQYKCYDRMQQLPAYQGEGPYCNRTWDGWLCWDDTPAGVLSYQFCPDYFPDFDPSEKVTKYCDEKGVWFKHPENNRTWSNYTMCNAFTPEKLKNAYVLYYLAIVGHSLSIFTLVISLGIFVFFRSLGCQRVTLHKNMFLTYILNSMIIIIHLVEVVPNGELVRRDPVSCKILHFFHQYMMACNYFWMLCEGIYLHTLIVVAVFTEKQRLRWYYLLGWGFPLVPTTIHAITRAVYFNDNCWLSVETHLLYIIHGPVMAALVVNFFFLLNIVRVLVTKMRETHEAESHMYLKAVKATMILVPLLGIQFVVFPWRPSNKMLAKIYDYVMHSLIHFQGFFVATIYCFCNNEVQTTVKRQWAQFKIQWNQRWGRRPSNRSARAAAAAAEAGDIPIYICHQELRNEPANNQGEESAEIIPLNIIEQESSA
To be noted: mean ± S.E.M.; for Emax: IP1 maximal response, SEM. The essentials: (§1)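 Cells bearing the mutant calcitonin receptor were plated overnight, then stimulated with increasing ligand concentrations for 60 min in the presence of LiCl. Endogenous IP1 was read by HTRF after lysis.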

The target of another experiment is T2, hCTR I371A (Homo sapiens, UniProt P30988, I371A).
T2 construct: c-Myc (N); expressed in transfected cells
T2 sequence (P30988 25-474 I371A): T1 sequence (P30988 25-474 G369A) with A345G, I347A
To be noted: mean ± S.E.M.; for Emax: IP1 maximal response, SEM. The essentials:
as §1

For another experiment, the target named is T3, hCTR L298A (Homo sapiens, UniProt P30988, L298A).
T3 construct: c-Myc (N); expressed in transfected cells
T3 sequence (P30988 25-474 L298A): T1 sequence (P30988 25-474 G369A) with L274A, A345G
To be noted: for Emax: read-out: Emax (% WT), SEM. The method, boiled down: as §1

Another experiment addresses T4, hCTR M376A (Homo sapiens, UniProt P30988, M376A).
T4 construct: c-Myc (N); expressed in transfected cells
T4 sequence (P30988 25-474 M376A): T1 sequence (P30988 25-474 G369A) with A345G, M352A
To be noted: mean ± S.E.M.; for Emax: IP1 maximal response, SEM. The essentials:
as §1

A further experiment has as its target T5, hCTR V358A (Homo sapiens, UniProt P30988, V358A).
T5 construct: c-Myc (N); expressed in transfected cells
T5 sequence (P30988 25-474 V358A): T1 sequence (P30988 25-474 G369A) with V334A, A345G
To be noted: mean ± S.E.M.; for Emax: IP1 maximal response, SEM. The essentials: as §1

The mark [1] stands for this setting: IP1, CV1-FlpIn cells, 60 min, LiCl.

Numbering of substitutions follows the chain as printed. Like-named read-outs stand apart in the source and are kept apart here. Where a SMILES comes first, the peptide text is derived from it. Bridges are numbered along the chain shown (N, C = ends).

As usually defined, the Emax is the greatest response seen or fitted, relative to the assay's reference. As to `CC[C@H](C)[C@H](NC(=O)[C@H](C)NC(=O)[C@@H](NC(=O)[C@H](CCC(N)=O)NC(=O)[C@@H]1CCCN1C(=O)[C@H](Cc1ccccc1)NC(=O)[C@@H](NC(=O)[C@H](Cc1c[nH]cn1)NC(=O)[C@H](Cc1ccccc1)NC(=O)[C@H](CCCCN)NC(=O)[C@H](CC(N)=O)NC(=O)[C@H](Cc1ccccc1)NC(=O)[C@H](CC(=O)O)NC(=O)[C@H](CCC(N)=O)NC(=O)[C@@H](NC(=O)[C@H](Cc1ccc(O)cc1)NC(=O)[C@@H](NC(=O)CNC(=O)[C@H](CC(C)C)NC(=O)[C@H](CCSC)NC(=O)[C@@H]1CSSC[C@H](N)C(=O)NCC(=O)N[C@@H](CC(N)=O)C(=O)N[C@@H](CC(C)C)C(=O)N[C@@H](CO)C(=O)N[C@@H]([C@@H](C)O)C(=O)N1)[C@@H](C)O)[C@@H](C)O)[C@@H](C)O)[C@@H](C)O)C(=O)NCC(=O)N[C@H](C(=O)NCC(=O)N[C@@H](C)C(=O)N1CCC[C@H]1C(N)=O)C(C)C` [hCT], the Emax at hCTR G369A amounted to 148 ± 10%; on hCTR I371A, 42 ± 3%; at hCTR L298A, 58 ± 6%; on hCTR M376A it was 52 ± 5%; at hCTR V358A it was 126 ± 9%.
The term EC50 denotes the concentration giving half of the maximal effect. For the compound `CSCC[C@H](NC(=O)CNC(=O)[C@H](CO)NC(=O)[C@H](Cc1ccccc1)NC(=O)[C@H](CCCNC(=N)N)NC(=O)[C@H](Cc1c[nH]cn1)NC(=O)[C@H](Cc1ccccc1)NC(=O)[C@H](CC(N)=O)NC(=O)[C@H](CC(N)=O)NC(=O)[C@H](CC(C)C)NC(=O)[C@H](CC(N)=O)NC(=O)[C@H](CCCNC(=N)N)NC(=O)[C@H](Cc1c[nH]c2ccccc12)NC(=O)[C@H](Cc1ccc(O)cc1)NC(=O)[C@H](C)NC(=O)[C@H](CO)NC(=O)[C@H](CC(C)C)NC(=O)[C@@H](NC(=O)[C@@H]1CSSC[C@H](N)C(=O)N[C@@H](CO)C(=O)N[C@@H](CC(N)=O)C(=O)N[C@@H](CC(C)C)C(=O)N[C@@H](CO)C(=O)N[C@@H]([C@@H](C)O)C(=O)N1)C(C)C)C(=O)NCC(=O)N[C@@H](Cc1ccccc1)C(=O)NCC(=O)N1CCC[C@H]1C(=O)N[C@@H](CCC(=O)O)C(=O)N[C@H](C(=O)N1CCC[C@H]1C(N)=O)[C@@H](C)O` [pCT] (H-CSNLSTCVLSAYWRNLNNFHRFSGMGFGPETP-NH2; disulfide 1-7), the EC50 on hCTR G369A (setting [1]) is 7.59 nM; on hCTR I371A (setting [1]), 4.17 nM; on hCTR L298A (L298A, IP1, CV1-FlpIn cells, 60 min, LiCl, mean ± S.E.M.), 4.07 nM; on hCTR M376A (setting [1]) it was 5.62 nM; on hCTR V358A (setting [1]), 3.31 nM. The maximal effect (Emax) at hCTR G369A was found to be 110 ± 6%; at hCTR I371A it was 61 ± 6%; on hCTR L298A (L298A, IP1 maximal response, mean ± S.E.M.) it was 91 ± 10%; on hCTR M376A it was 47 ± 4%; at hCTR V358A, 73 ± 6%.
For the compound `CC(C)C[C@H](NC(=O)[C@H](CCCCN)NC(=O)CNC(=O)[C@H](CC(C)C)NC(=O)[C@@H](NC(=O)[C@@H]1CSSC[C@H](N)C(=O)N[C@@H](CO)C(=O)N[C@@H](CC(N)=O)C(=O)N[C@@H](CC(C)C)C(=O)N[C@@H](CO)C(=O)N[C@@H]([C@@H](C)O)C(=O)N1)C(C)C)C(=O)N[C@@H](CO)C(=O)N[C@@H](CCC(N)=O)C(=O)N[C@@H](CCC(=O)O)C(=O)N[C@@H](CC(C)C)C(=O)N[C@@H](Cc1c[nH]cn1)C(=O)N[C@@H](CCCCN)C(=O)N[C@@H](CC(C)C)C(=O)N[C@@H](CCC(N)=O)C(=O)N[C@H](C(=O)N[C@@H](Cc1ccc(O)cc1)C(=O)N1CCC[C@H]1C(=O)N[C@@H](CCCNC(=N)N)C(=O)N[C@H](C(=O)N[C@@H](CC(N)=O)C(=O)N[C@H](C(=O)NCC(=O)N[C@@H](CO)C(=O)NCC(=O)N[C@H](C(=O)N1CCC[C@H]1C(N)=O)[C@@H](C)O)[C@@H](C)O)[C@@H](C)O)[C@@H](C)O` [sCT], the Emax on hCTR G369A was 97 ± 7%; at hCTR I371A, 31 ± 14%; on hCTR L298A, 66 ± 5%; at hCTR M376A, 95 ± 4%; on hCTR V358A it was 123 ± 6%.

The values above are taken from paper PMC5908784, “Extracellular loops 2 and 3 of the calcitonin receptor selectively modify agonist binding and efficacy” (Biochemical Pharmacology, 2018).
